Columns and labels:
[1] = tested on: bleomycin-induced respiratory impairment; experiment: Respiratory measurements by whole body plethysmography, BLM rat model, combination study (Example 3, Table E6); assay type: in vivo, rat (male Sprague Dawley); design: Tidal Volume: unit not given here; conditions: for Expiratory Time / Inspiratory Time / Peak Expiratory Flow / Peak Inspiratory Flow / Tidal Volume / Respiratory Rate / Respiratory Minute Volume: mean; for Respiratory Rate: in breaths/min (unit assumed); for Respiratory Minute Volume: in mL/min (unit assumed)
Protocol: (§1) PBS or BLM was administered under isoflurane anesthesia. Excess rats were induced with BLM and used to replace any animals with excessive body weight loss.
(§2) All treatments commenced on Day 9.
(§3) In-life, body weights were measured and clinical observations were conducted daily. On Days 8, 15 and 21, animals were removed from their home cages and placed individually into whole body plethysmography chambers. After a 20-minute acclimatization phase, respiratory parameters were recorded for 10 minutes. Pre-study and on Days 10 and Day 17, whole blood was obtained from the tail vein and processed to serum for measurement of HRS^FC1.

[2] = Body weight, BLM rat model, combination study (Example 3); assay type: in vivo, rat (male Sprague Dawley); conditions: BLM-induced rats; Nintedanib, Pirfenidone or Test Article (HRS^FC1 3 mg/kg IV weekly), alone or in combination, from Day 9
Protocol: as §1, §2, §3

[3] = tested on: bleomycin-induced lung fibrosis; experiment: Histological fibrosis (modified Ashcroft) score, BLM rat model, combination study (Example 3); assay type: in vivo, rat (male Sprague Dawley); conditions: BLM-induced rats; alone or in combination, vs PO plus IV vehicles; data not shown
Protocol: (§4) The five lung lobes were collected and weighed. On Day 17, the right accessory lobe was retained and desiccated to obtain dry weight. The remaining right lung lobes were inflated and fixed in 10% neutral buffered formalin and embedded in paraffin for histological analysis. An approximately 50 mg piece of the left lung lobe was snap frozen and stored at −80° C. for potential RNA analysis. The remainder of the lobe was also snap frozen until analyzed for collagen content.
(§5) Sections for histology were stained using picrosirius red and were scored in a blinded fashion (1 score for each of the 3-4 lobes) by a veterinary pathologist using a modified Ashcroft score (Hubner et al., 2008). Hydroxyproline content was determined in the left lung lobe using a mass spectrometry method.
(§6) Slides were read by a veterinary pathologist and each of the 3 lobes evaluated was assigned 4 score types [Ashcroft for fibrosis (scores range from 0 to 8), perivascular/peribronchiolar inflammatory cell infiltrate (scores range from 0 to 5), interstitial/alveolar inflammatory cell infiltrate (scores range from 0 to 5), type II pneumocyte hyperplasia (scores range from 0 to 5)].

[4] = tested on: bleomycin-induced lung inflammation; experiment: Interstitial/alveolar inflammatory cell infiltrate score, BLM rat model, combination study (Example 3); assay type: in vivo, rat (male Sprague Dawley); conditions: BLM-induced rats; alone or in combination, vs PO plus IV vehicles; data not shown
Protocol: as §4, §5, §6

[5] = tested on: bleomycin-induced lung fibrosis; experiment: Survival, BLM-induced lung fibrosis mouse model (Example 1, Table E2); assay type: in vivo, mouse (male C57Bl/6J); conditions: for Survival (number of animals surviving to study day): Dex. 0.25 mg/kg PO, BLM mice, 12 at start
Protocol: (§7) Lung inflammation and fibrosis were induced in male C57Bl/6J mice by oropharyngeal administration of BLM. After the habituation phase mice were randomized based on body weight over the different groups. Under isoflurane anesthesia, 50 μl PBS or BLM was dripped onto the vocal cords facilitating aspiration. Mice were sacrificed at day 21 using a terminal bleed under isoflurane anesthesia.
(§8) Daily oral treatments commenced on Day 0, while daily IV treatments commenced on Day 8. Dosing was planned to continue until the day of termination (Day 21), however, due to high mortality in IV treated groups (see results), IV dosing was skipped on Day 19 and Day 20. […] Subsequently, the mice received 8% D20 (Kinemed, Emeryville) drinking water until sacrifice to maintain labeling of newly formed collagen. Body weight was monitored three times a week.
The study commenced with 7 animals in the non-diseased control group and 12 animals in the BLM-induced groups. Survival is show in Table E2 below.

[6] = Body weight, BLM mouse model (Example 1); assay type: in vivo, mouse (male C57Bl/6J); conditions: BLM-induced mice; daily PO from Day 0: dexamethasone 0.25 mg/kg, Nintedanib 60 mg/kg
Protocol: as §7, §8

[7] = tested on: bleomycin-induced lung fibrosis; experiment: Lung wet and dry weight, BLM mouse model (Example 1); assay type: in vivo, mouse (male C57Bl/6J); conditions: BLM-induced mice; dexamethasone 0.25 mg/kg PO daily from Day 0
Protocol: as §7, §8
(§9) The five lung lobes were collected and isolated. Wet weight of the medial and accessory lung lobes was recorded. The lobes were then snap frozen and stored at <−70° C. until use for hydroxyproline analysis. The left lung lobe was inflated and fixed for 48 hours in 4% formaldehyde and embedded in paraffin for histological analysis. The cranial lung lobe was snap frozen and stored at −80° C. until shipment to Kinemed for the determination of new collagen formation.

[8] = tested on: bleomycin-induced lung fibrosis; experiment: Histological fibrosis (modified Ashcroft) score, BLM mouse model (Example 1); assay type: in vivo, mouse (male C57Bl/6J); conditions: BLM-induced mice; dexamethasone 0.25 mg/kg/dose from day of BLM instillation; Summary value, significant
Protocol: as §9
Sections of the left lung lobe were stained using Masson's Trichrome and were scored in a blinded fashion using a modified Ashcroft score (Hubner et al., BioTechniques. 44:507-511, 514-507, 2008). Hydroxyproline content was determined in the medial and accessory lung lobes using acid hydrolysis followed by a chromogenic assay (QuickZyme Biosciences, Leiden, Netherlands). Newly formed collagen was measured in the cranial lung lobe by Kinemed Inc., Emeryville, USA using the fraction of body water enriched in 2H for normalization.

[9] = Serum HRS^FC1 levels by sandwich ELISA, BLM rat model (Example 3); assay type: in vivo, rat (male Sprague Dawley); conditions: for Serum levels of HRS^FC1 ~24 hours post dose, vs HRS^FC1 plus oral vehicle: FIG. 6; for Amount of HRS^FC1 in serum 24 hours after IV injection: second confirmatory study, identical methods, data not shown
Protocol: as §2, §3
Serum samples from animals treated with HRS^FC1 were used to determine levels of the protein in systemic circulation using standard sandwich ELISA techniques with antibodies that capture the HRS moiety and detect the Fc portion of the fusion protein.
All statistical analyses were performed using GraphPad Prism (GraphPad Software, San Diego, Calif.). Groups were compared using the one-way ANOVA test (histology, lung weights, collagen content) or two-way repeated measures ANOVA test (pharmacokinetics), followed, when appropriate by a post-hoc Dunnett test.

[10] = Day 8 (prior to any treatments), Pirf. PO + Vehicle IV group

Cc1ccc(=O)n(-c2ccccc2)c1 [Pirf.]
Expiratory Time [1, 10]: 0.153 s | Inspiratory Time [1, 10]: 0.114 s | Peak Expiratory Flow [1, 10]: 19.5 | Peak Inspiratory Flow [1, 10]: 17.5 | Tidal Volume [1, 10]: 1.24 | Respiratory Rate [1, 10]: 247.6 | Respiratory Minute Volume [1, 10]: 314.8 | Expiratory Time ([1]; Day 15, Pirf. PO + Vehicle IV): 0.193 s | Inspiratory Time ([1]; Day 15, Pirf. PO + Vehicle IV): 0.135 s | Peak Expiratory Flow ([1]; Day 15, Pirf. PO + Vehicle IV): 15.0 | Peak Inspiratory Flow ([1]; Day 15, Pirf. PO + Vehicle IV): 15.6 | Tidal Volume ([1]; Day 15, Pirf. PO + Vehicle IV): 1.23 | Respiratory Rate ([1]; Day 15, Pirf. PO + Vehicle IV): 206.2 | Respiratory Minute Volume ([1]; Day 15, Pirf. PO + Vehicle IV): 260.2 | Expiratory Time ([1]; Day 21, Pirf. PO + Vehicle IV): 0.234 s | Inspiratory Time ([1]; Day 21, Pirf. PO + Vehicle IV): 0.148 s | Peak Expiratory Flow ([1]; Day 21, Pirf. PO + Vehicle IV): 13.0 | Peak Inspiratory Flow ([1]; Day 21, Pirf. PO + Vehicle IV): 15.8 | Tidal Volume ([1]; Day 21, Pirf. PO + Vehicle IV): 1.43 | Respiratory Rate ([1]; Day 21, Pirf. PO + Vehicle IV): 186.5 | Respiratory Minute Volume ([1]; Day 21, Pirf. PO + Vehicle IV): 259.6

Cc1ccc(=O)n(-c2ccccc2)c1 [Pirfenidone, pirfenidone]
Body weight curves vs respective controls [2]: None of the groups treated with Nintedanib, Pirfenidone or Test Article alone or in combination had body weight curves that significantly differed | BLM-induced alterations in respiratory parameters ([1]; BLM-induced rats, Day 15 and Day 21, Nintedanib, Pirfenidone or Test Article (HRS^FC1)): did not significantly impact | Interstitial inflammatory cell infiltrate (as printed in the Ashcroft score paragraph) [3]: no significant effect | Interstitial inflammatory cell infiltrate [4]: no significant effect

C[C@@H]1C[C@H]2[C@@H]3CCC4=CC(=O)C=C[C@]4(C)[C@@]3(F)[C@@H](O)C[C@]2(C)[C@@]1(O)C(=O)CO [dexamethasone]
Survival rate ([5]; BLM-induced mice to Day 21, daily PO from Day 0: dexamethasone 0.25 mg/kg, Nintedanib 60 mg/kg): 75% | Survival (number of animals surviving to study day) ([5]; Day 11): 12 | Survival (number of animals surviving to study day) ([5]; Day 12): 12 | Survival (number of animals surviving to study day) ([5]; Day 13): 11 | Survival (number of animals surviving to study day) ([5]; Day 14): 10 | Survival (number of animals surviving to study day) ([5]; Day 15): 10 | Survival (number of animals surviving to study day) ([5]; Day 16): 10 | Survival (number of animals surviving to study day) ([5]; Day 17): 10 | Survival (number of animals surviving to study day) ([5]; Day 18): 9 | Survival (number of animals surviving to study day) ([5]; Day 19): 9 | Survival (number of animals surviving to study day) ([5]; Day 20): 9 | Survival (number of animals surviving to study day) ([5]; Day 21): 9 | Body weight, of initial body weights [6]: around 90% | Decrease of lung wet weight compared to PO vehicle group [7]: 15.6% | Improvement of Ashcroft fibrosis score [8]: 11.3%

HRS^FC1: Test Article of Examples 2 and 3; HRS-Fc fusion protein Fc-HRS(2-60)
Serum levels of HRS^FC1, change between Days 17 and 22 ([9]; BLM-induced rats, 3 mg/kg IV on Days 9 and 16): decreased | Serum levels of HRS^FC1 ([9]; BLM-induced rats, 3 mg/kg IV on Days 9 and 16, Days 10, 17 and 22): detectable | Serum levels of HRS^FC1 ~24 hours post dose, vs HRS^FC1 plus oral vehicle ([9]; BLM-induced rats, concomitant oral Nintedanib 60 mg/kg once daily): significantly increased | Serum levels of HRS^FC1 ~24 hours post dose, vs HRS^FC1 plus oral vehicle ([9]; BLM-induced rats, concomitant oral Pirfenidone 70 mg/kg per dose three times daily): significantly increased | Amount of HRS^FC1 in serum 24 hours after IV injection ([9]; concomitant Nintedanib): increased | Amount of HRS^FC1 in serum 24 hours after IV injection ([9]; concomitant Pirfenidone): increased
